Values joined by “and” are separate entries in the source; they are usually repeats but may differ in a detail not shown here. Equal entries are not always repeated.
Tests used:
Format in all cases: cell-based
GPR139 [1] = molecular target: T1, GPR139 (Homo sapiens, UniProt Q6DWJ6); assay: Ca2+ mobilization assay, agonist mode, stable GPR139-CHOk1 cell line; settings: for EC50 / Emax: Supplementary Table 2, mean ± SEM; for EC50: read-out: pEC50 Ca2+ (converted); for Emax: normalized to Lundbeck Cmp 1a, read-out: Emax (%) Ca2+; for activation of GPR139 at three concentrations: 0.1, 1 and 10 µM, activity too low to reliably determine EC50
T1 sequence (Q6DWJ6 1-353): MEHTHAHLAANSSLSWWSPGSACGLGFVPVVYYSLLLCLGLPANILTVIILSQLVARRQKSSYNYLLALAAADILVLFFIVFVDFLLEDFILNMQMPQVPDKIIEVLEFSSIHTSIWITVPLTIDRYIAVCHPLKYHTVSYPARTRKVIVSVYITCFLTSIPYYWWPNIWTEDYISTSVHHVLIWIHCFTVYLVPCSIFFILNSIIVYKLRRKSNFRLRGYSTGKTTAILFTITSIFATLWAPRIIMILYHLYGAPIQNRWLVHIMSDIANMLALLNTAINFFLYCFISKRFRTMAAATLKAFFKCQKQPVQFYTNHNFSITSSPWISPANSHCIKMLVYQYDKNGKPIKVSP
Method in brief: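 Agonist activity of compounds is assessed in stably transfected CHO-K1 cells using the calcium dye Fluo-4 at 37 °C in HEPES-buffered HBSS (pH 7.4). Efficacy is expressed relative to the reference agonist Lundbeck Cmp 1a, set as 100%.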

[2] = molecular target: T2, human muscarinic acetylcholine M1 receptor (M1R) (Homo sapiens, UniProt P11229); assay: Ca2+ mobilization counter-screen in M1R-CHOk1 cells
T2 sequence (P11229 1-460): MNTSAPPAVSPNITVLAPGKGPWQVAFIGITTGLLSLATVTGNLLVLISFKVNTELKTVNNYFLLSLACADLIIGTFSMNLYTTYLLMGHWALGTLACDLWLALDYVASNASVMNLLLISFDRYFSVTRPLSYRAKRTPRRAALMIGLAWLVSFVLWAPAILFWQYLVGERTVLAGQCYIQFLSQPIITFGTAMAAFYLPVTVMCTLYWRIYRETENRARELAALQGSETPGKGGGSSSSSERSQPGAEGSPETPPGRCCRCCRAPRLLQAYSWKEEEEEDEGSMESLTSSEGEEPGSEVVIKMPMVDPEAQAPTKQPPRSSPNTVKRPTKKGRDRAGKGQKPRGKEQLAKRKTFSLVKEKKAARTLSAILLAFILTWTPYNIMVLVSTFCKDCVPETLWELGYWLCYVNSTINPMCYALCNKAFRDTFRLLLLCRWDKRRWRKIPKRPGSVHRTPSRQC
Method in brief: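 M1R-CHOk1 cells seeded at 30,000/well for 20–24 h were loaded with 2 µM Fluo-4 AM for 1 h at 37 °C in HEPES-buffered HBSS (pH 7.4, 2.5 mM probenecid). Compounds were added after baseline reads, with DMSO at most 0.3% final. Calcium mobilization was read at 37 °C, excitation 485/emission 525 nm.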

GPR139 [3] = molecular target: T1, GPR139; assay: Ca2+ mobilization assay, antagonist mode (EC80 800 nM Lundbeck Cmp 1a after 20 min preincubation), GPR139-CHOk1
Method in brief: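 Fluo-4-loaded GPR139-CHOk1 cells in HEPES-buffered HBSS (pH 7.4, 2.5 mM probenecid) given test compounds at 10 µM, then after 20 min challenged with 800 nM Lundbeck Cmp 1a (EC80). Calcium fluorescence read at 37 °C, 485/525 nm.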

[4] = Agonist mode, individual replicates (Supplementary Figure 4)
[5] = log [Compound] M = -4.5, individual replicate columns
[6] = log [Compound] M = -5.0, individual replicate columns
[7] = log [Compound] M = -5.5, individual replicate columns
[8] = log [Compound] M = -6.0, individual replicate columns
[9] = log [Compound] M = -6.5, individual replicate columns
[10] = log [Compound] M = -7.0, individual replicate columns
[11] = log [Compound] M = -7.5, individual replicate columns
[12] = log [Compound] M = -8.0, individual replicate columns
[13] = log [Compound] M = -8.5, individual replicate columns
[14] = log [Compound] M = -9.0, individual replicate columns
[15] = individual replicates (Supplementary Figure 5)
[16] = individual replicates (Supplementary Figure 4)
[17] = 0.1 µM, individual replicates (Supplementary Figure 3)
[18] = 1 µM, individual replicates (Supplementary Figure 3)
[19] = 10 µM, individual replicates (Supplementary Figure 3)
[20] = Agonist mode, individual replicates (Supplementary Figure 1)
[21] = primary screen, 10 µM compound, agonist mode, three columns = independent experiments
[22] = individual replicates (Supplementary Figure 2)
[23] = individual replicates (Supplementary Figure 1)

| SMILES | Ca2+ signal (% of Cmp 1a) (GPR139 [1]; [4]) | EC50 (GPR139 [1]) [nM] | Emax (GPR139 [1]) [%] | Ca2+ signal (% of Cmp 1a) (GPR139 [1]; [5]) | Ca2+ signal (% of Cmp 1a) (GPR139 [1]; [6]) | Ca2+ signal (% of Cmp 1a) (GPR139 [1]; [7]) | Ca2+ signal (% of Cmp 1a) (GPR139 [1]; [8]) | Ca2+ signal (% of Cmp 1a) (GPR139 [1]; [9]) | Ca2+ signal (% of Cmp 1a) (GPR139 [1]; [10]) | Ca2+ signal (% of Cmp 1a) (GPR139 [1]; [11]) | Ca2+ signal (% of Cmp 1a) (GPR139 [1]; [12]) | Ca2+ signal (% of Cmp 1a) (GPR139 [1]; [13]) | Ca2+ signal (% of Cmp 1a) (GPR139 [1]; [14]) | Ca2+ signal (% of Carbachol) [2, 15] | Ca2+ signal (% of Cmp 1a) (GPR139 [3]; [16]) | Ca2+ signal (% of Cmp 1a) (GPR139 [1]; [17]) | Ca2+ signal (% of Cmp 1a) (GPR139 [1]; [18]) | Ca2+ signal (% of Cmp 1a) (GPR139 [1]; [19]) | activation of GPR139 at three concentrations (GPR139 [1]) | Ca2+ signal (% of Cmp 1a) (GPR139 [1]; [20]) | further results |
| --- | --- | --- | --- | --- | --- | --- | --- | --- | --- | --- | --- | --- | --- | --- | --- | --- | --- | --- | --- | --- | --- |
| Cc1nc2cc(-c3nc(CC(=O)NC(C)c4ccccc4)no3)ccc2o1 (stereo not drawn) [Compound 1.22, CC(C1=CC=CC=C1)NC(CC2=NOC(C3=CC4=C(OC(C)=N4)C=C3)=N2)=O] | 71 % of Cmp 1a and 37 % of Cmp 1a and 44 % of Cmp 1a | 1580 | 99 ± 2 | 109 % of Cmp 1a and 96 % of Cmp 1a and 93 % of Cmp 1a and 83 % of Cmp 1a and 99 % of Cmp 1a | 90 % of Cmp 1a and 71 % of Cmp 1a and 95 % of Cmp 1a and 84 % of Cmp 1a and 101 % of Cmp 1a | 58 % of Cmp 1a and 43 % of Cmp 1a and 99 % of Cmp 1a and 59 % of Cmp 1a and 110 % of Cmp 1a | 50 % of Cmp 1a and 22 % of Cmp 1a and 51 % of Cmp 1a and 35 % of Cmp 1a and 73 % of Cmp 1a | 30 % of Cmp 1a and 0.909 % of Cmp 1a and 8 % of Cmp 1a and 29 % of Cmp 1a and 36 % of Cmp 1a | 1.28 % of Cmp 1a and -0.203 % of Cmp 1a and -2.54 % of Cmp 1a and 0.332 % of Cmp 1a and 14 % of Cmp 1a | 1.35 % of Cmp 1a and 7.39 % of Cmp 1a and -10 % of Cmp 1a and -1.26 % of Cmp 1a and 4 % of Cmp 1a | 7 % of Cmp 1a and 10 % of Cmp 1a and -6 % of Cmp 1a and 0.314 % of Cmp 1a and 2.72 % of Cmp 1a | -3.6 % of Cmp 1a and 18 % of Cmp 1a and -4.69 % of Cmp 1a and -1.59 % of Cmp 1a and 9 % of Cmp 1a | -5 % of Cmp 1a and 7.5 % of Cmp 1a and -3.72 % of Cmp 1a and 1.69 % of Cmp 1a and 6.38 % of Cmp 1a | -19 % of Carbachol and -2.46 % of Carbachol and -2.2 % of Carbachol | 13 % of Cmp 1a and 39 % of Cmp 1a and 19 % of Cmp 1a | – | – | – | – | – | change in potency with larger substituents on the thiophene ring (GPR139 [1]; Ca2+ mobilization): three-fold reduction to a complete loss of activity |
| C[C@H](NC(=O)CN(CC1CC1)C(=O)OC(C)(C)C)c1ccccc1 [Compound 10, C[C@H](NC(=O)CN(CC1CC1)C(=O)OC(C)(C)C)C=2C=CC=CC2] | – | – | – | – | – | – | – | – | – | – | – | – | – | – | – | -1.5 % of Cmp 1a and 11.5 % of Cmp 1a | 2.4 % of Cmp 1a and 6.6 % of Cmp 1a | 39.5 % of Cmp 1a and 47.6 % of Cmp 1a | concentration-dependent activation of GPR139 | 58 % of Cmp 1a and 64 % of Cmp 1a and 72 % of Cmp 1a | Ca2+ signal (% of Cmp 1a) (GPR139 [1]; [21]): 58 % of Cmp 1a and 64 % of Cmp 1a and 72 % of Cmp 1a; Ca2+ signal (% of Carbachol) [2, 22]: 3.79 % of Carbachol and -10 % of Carbachol; Ca2+ signal (% of Cmp 1a) (GPR139 [3]; [23]): 34.852 % of Cmp 1a and 42.0733 % of Cmp 1a and 46.5676 % of Cmp 1a |
| O=C(NCc1ccc(Cl)o1)N1CCCc2ccccc2C1 [Compound 7, ClC1=CC=C(CNC(=O)N2CCCC=3C=CC=CC3C2)O1] | – | – | – | – | – | – | – | – | – | – | – | – | – | – | – | 16.2 % of Cmp 1a and 6.0 % of Cmp 1a | 2.4 % of Cmp 1a and 4.1 % of Cmp 1a | 22.7 % of Cmp 1a and 24.5 % of Cmp 1a | concentration-dependent activation of GPR139 | 44 % of Cmp 1a and 39 % of Cmp 1a and 33 % of Cmp 1a | Ca2+ signal (% of Cmp 1a) (GPR139 [1]; [21]): 44 % of Cmp 1a and 39 % of Cmp 1a and 33 % of Cmp 1a; Ca2+ signal (% of Carbachol) [2, 22]: -10 % of Carbachol and -18 % of Carbachol; Ca2+ signal (% of Cmp 1a) (GPR139 [3]; [23]): 37.7665 % of Cmp 1a and 52.8581 % of Cmp 1a and 40.8806 % of Cmp 1a |
| Cc1cc(-c2nc(CC(=O)NC(C)c3ccccc3)no2)ccn1 (stereo not drawn) [Compound 1.19, CC(C1=CC=CC=C1)NC(CC2=NOC(C3=CC(C)=NC=C3)=N2)=O] | 76 % of Cmp 1a and 74 % of Cmp 1a and 71 % of Cmp 1a | 1000 | 109 ± 10 | 117 % of Cmp 1a and 90 % of Cmp 1a and 116 % of Cmp 1a | 97 % of Cmp 1a and 89 % of Cmp 1a and 99 % of Cmp 1a | 77 % of Cmp 1a and 75 % of Cmp 1a and 88 % of Cmp 1a | 61 % of Cmp 1a and 62 % of Cmp 1a and 60 % of Cmp 1a | 30 % of Cmp 1a and 19 % of Cmp 1a and 26 % of Cmp 1a | 9 % of Cmp 1a and 6.33 % of Cmp 1a and 5.33 % of Cmp 1a | 4.67 % of Cmp 1a and 0.667 % of Cmp 1a and -2.67 % of Cmp 1a | 3 % of Cmp 1a and -3.33 % of Cmp 1a and -3.67 % of Cmp 1a | 13 % of Cmp 1a and -4.67 % of Cmp 1a and 2.33 % of Cmp 1a | 7 % of Cmp 1a and -8 % of Cmp 1a and -1.33 % of Cmp 1a | 8 % of Carbachol and -12 % of Carbachol and 7 % of Carbachol | 5.67 % of Cmp 1a and -2 % of Cmp 1a and -8 % of Cmp 1a | – | – | – | – | – | fold decrease in potency relative to a similar phenyl substituted compound (1.3) (GPR139 [1]; Ca2+ mobilization EC50): 4- to 16 fold |
| Cc1cc(-c2nc(CC(=O)NC(C)c3ccccc3)no2)on1 (stereo not drawn) [Compound 1.30, CC(C1=CC=CC=C1)NC(CC2=NOC(C3=CC(C)=NO3)=N2)=O] | 70 % of Cmp 1a and 59 % of Cmp 1a and 57 % of Cmp 1a | 2510 | 79 ± 3 | 86 % of Cmp 1a and 79 % of Cmp 1a and 75 % of Cmp 1a | 85 % of Cmp 1a and 68 % of Cmp 1a (2×) | 52 % of Cmp 1a and 50 % of Cmp 1a (2×) | -11 % of Cmp 1a and 14 % of Cmp 1a and 19 % of Cmp 1a | -12 % of Cmp 1a and 7 % of Cmp 1a (2×) | -10 % of Cmp 1a and 8 % of Cmp 1a and -3 % of Cmp 1a | -14 % of Cmp 1a and 7 % of Cmp 1a and -8 % of Cmp 1a | -5.33 % of Cmp 1a and 5.67 % of Cmp 1a and 1.67 % of Cmp 1a | -11 % of Cmp 1a and -3 % of Cmp 1a and 1.67 % of Cmp 1a | 10 % of Cmp 1a and 7 % of Cmp 1a and 3.67 % of Cmp 1a | 4 % of Carbachol and -9 % of Carbachol and 13 % of Carbachol | 46 % of Cmp 1a and 28 % of Cmp 1a and 13 % of Cmp 1a | – | – | – | – | – | – |
